# Measured values published in patent US9938273B2 (Plexxikon Inc., priority 2015, dated 2018).
# pIC50: −log10 of the molar value.
# Test system: MOLM-14 F691L cells, FLT3 ITD and FLT3 F691L
# Assay: Cell proliferation assay (CellTiter-Glo), MOLM-14 F691L
# Assay type: cell-based
# Details: Homo sapiens, 72 h, 3d-Growth, GMean
# Summary of the method: (§1)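 Three-day growth at 37 °C, 5% CO2 under compound (1 μM top final, 1:3 dilutions, eight points, 0.2% DMSO), read as ATP luminescence by CellTiter-Glo for IC50. Cells: MOLM-14 with FLT3 ITD plus D835Y or F691L, and IL-3-deprived Ba/F3 transfected with FLT3 ITD/D835Y, 1×10^4 per well.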
row,pIC50,SMILES
1,5.00 to 10.00,"CC(C)(C#N)NC(=O)c1cccc(-c2cnc3[nH]c(-c4cscn4)cc3c2)n1 [Compound P-0167, N-(1-cyano-1-methyl-ethyl)-6-(2-thiazol-4-yl-1H-pyrrolo[2,3-b]pyridin-5-yl)pyridine-2-carboxamide]"
2,5.00 to 10.00,"CC(C)(C#N)NC(=O)c1cccc(-c2cnc3[nH]c(-c4cnn(C(=O)C5CC5)c4)cc3c2)n1 [Compound P-0184, N-(1-cyano-1-methyl-ethyl)-6-[2-[1-(cyclopropanecarbonyl)pyrazol-4-yl]-1H-pyrrolo[2,3-b]pyridin-5-yl]pyridine-2-carboxamide]"
3,5.00 to 10.00,"CC(C)(C#N)NC(=O)c1cccc(-c2cnc3[nH]c(-c4cnn(C(F)F)c4)c(Cl)c3c2)n1 [Compound P-0185, 6-[3-chloro-2-[1-(difluoromethyl)pyrazol-4-yl]-1H-pyrrolo[2,3-b]pyridin-5-yl]-N-(1-cyano-1-methyl-ethyl)pyridine-2-carboxamide]"
4,5.00 to 10.00,"CC(C)(C#N)NC(=O)c1cccc(-c2cnc3[nH]c(C4=CCS(=O)(=O)CC4)cc3c2)n1 [Compound P-0186, N-(1-cyano-1-methyl-ethyl)-6-[2-(1,1-dioxo-3,6-dihydro-2H-thiopyran-4-yl)-1H-pyrrolo[2,3-b]pyridin-5-yl]pyridine-2-carboxamide]"
5,5.00 to 10.00,"CC(C)Oc1ccc(-c2cc3cc(-c4cccc(C(=O)NC(C)(C)C#N)n4)cnc3[nH]2)cn1 [Compound P-0190, N-(1-cyano-1-methyl-ethyl)-6-[2-(6-isopropoxy-3-pyridyl)-1H-pyrrolo[2,3-b]pyridin-5-yl]pyridine-2-carboxamide]"

# Target: T1, BA/F3-FLT3-ITD + D835Y cells (Homo sapiens, UniProt P36888, D835Y, cells depend on it, form not given)
# T1 sequence (P36888 1-993 D835Y): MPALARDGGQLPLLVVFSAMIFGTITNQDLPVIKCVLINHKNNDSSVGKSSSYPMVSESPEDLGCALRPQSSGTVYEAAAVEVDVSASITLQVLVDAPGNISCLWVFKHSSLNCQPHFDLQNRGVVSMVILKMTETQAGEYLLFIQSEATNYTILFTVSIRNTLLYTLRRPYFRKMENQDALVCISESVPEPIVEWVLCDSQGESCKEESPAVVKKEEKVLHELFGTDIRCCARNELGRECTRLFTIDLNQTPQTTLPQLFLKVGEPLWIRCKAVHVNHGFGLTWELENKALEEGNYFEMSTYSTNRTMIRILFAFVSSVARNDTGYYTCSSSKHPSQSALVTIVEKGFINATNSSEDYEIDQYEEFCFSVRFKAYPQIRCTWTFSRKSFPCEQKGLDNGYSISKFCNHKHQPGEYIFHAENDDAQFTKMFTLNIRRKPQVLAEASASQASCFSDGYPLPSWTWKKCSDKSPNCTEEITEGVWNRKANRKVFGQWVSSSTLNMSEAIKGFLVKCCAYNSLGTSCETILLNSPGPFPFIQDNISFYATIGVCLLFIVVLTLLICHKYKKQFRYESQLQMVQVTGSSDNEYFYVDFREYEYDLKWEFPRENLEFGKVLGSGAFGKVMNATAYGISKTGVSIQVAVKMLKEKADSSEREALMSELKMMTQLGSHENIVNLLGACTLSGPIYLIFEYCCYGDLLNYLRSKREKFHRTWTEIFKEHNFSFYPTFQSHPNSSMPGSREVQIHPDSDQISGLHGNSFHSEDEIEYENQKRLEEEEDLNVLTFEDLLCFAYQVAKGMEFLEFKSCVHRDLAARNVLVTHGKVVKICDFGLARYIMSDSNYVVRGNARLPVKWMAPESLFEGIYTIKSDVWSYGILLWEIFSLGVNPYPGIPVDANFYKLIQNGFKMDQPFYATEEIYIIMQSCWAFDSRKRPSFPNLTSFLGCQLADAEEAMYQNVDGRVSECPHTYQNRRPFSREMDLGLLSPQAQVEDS
# Assay: Cell proliferation assay (CellTiter-Glo), engineered BA/F3 cells
# Assay type: cell-based, murine
# Details: BaF3 FLT3 ITD/D835Y cells, 3d-Growth; read-out: BaF3_FLT3 ITD/D835Y 3d-Growth: IC50
# Summary of the method: as §1
row,SMILES,GI50 [µM]
1,"CNC1CCN(C(=O)c2cccc(-c3cnc4[nH]c(-c5cnn(CC(F)(F)F)c5)cc4c3)n2)C1 (stereo not shown) [Compound P-0061, [3-(methylamino)pyrrolidin-1-yl]-[6-[2-[1-(2,2,2-trifluoroethyl)pyrazol-4-yl]-1H-pyrrolo[2,3-b]pyridin-5-yl]-2-pyridyl]methanone]",0.0001 to 10
2,"CNC1CCN(C(=O)c2cccc(-c3cnc4[nH]c(-c5cccc(C#N)c5)cc4c3)n2)C1 (stereo not shown) [Compound P-0062, 3-[5-[6-[3-(methylamino)pyrrolidine-1-carbonyl]-2-pyridyl]-1H-pyrrolo[2,3-b]pyridin-2-yl]benzonitrile]",0.0001 to 10
3,"CNC1CCN(S(=O)(=O)c2cccc(-c3cnc4[nH]c(-c5ccccc5)cc4c3)n2)C1 (stereo not shown) [Compound P-0063, N-methyl-1-[[6-(2-phenyl-1H-pyrrolo[2,3-b]pyridin-5-yl)-2-pyridyl]sulfonyl]pyrrolidin-3-amine]",0.0001 to 10
4,"CNC1CCN(C(=O)c2cccc(-c3cnc4[nH]c(C5=CCC(C)(C)CC5)cc4c3)n2)C1 (stereo not shown) [Compound P-0070, [6-[2-(4,4-dimethylcyclohexen-1-yl)-1H-pyrrolo[2,3-b]pyridin-5-yl]-2-pyridyl]-[3-(methylamino)pyrrolidin-1-yl]methanone]",0.0001 to 10
5,"O=S(=O)(NC1CNC1)c1cccc(-c2cnc3[nH]c(-c4ccccc4)cc3c2)n1 [Compound P-0071, N-(azetidin-3-yl)-6-(2-phenyl-1H-pyrrolo[2,3-b]pyridin-5-yl)pyridine-2-sulfonamide]",0.0001 to 10
6,"O=S(=O)(NC1CCNC1)c1cccc(-c2cnc3[nH]c(-c4ccccc4)cc3c2)n1 (stereo not shown) [Compound P-0072, 6-(2-phenyl-1H-pyrrolo[2,3-b]pyridin-5-yl)-N-pyrrolidin-3-yl-pyridine-2-sulfonamide]",0.0001 to 10
7,"NC1CCN(S(=O)(=O)c2cccc(-c3cnc4[nH]c(-c5ccccc5)cc4c3)n2)CC1 [Compound P-0073, 1-[[6-(2-phenyl-1H-pyrrolo[2,3-b]pyridin-5-yl)-2-pyridyl]sulfonyl]piperidin-4-amine]",0.0001 to 10

# Other lines, results leading:
row,GI50 [µM],SMILES
1,0.0001 to 10,"CN1CCC(NC(=O)c2cccc(-c3cnc4[nH]c(-c5ccccc5)cc4c3)n2)C1 (stereo not shown) [Compound P-0064, N-(1-methylpyrrolidin-3-yl)-6-(2-phenyl-1H-pyrrolo[2,3-b]pyridin-5-yl)pyridine-2-carboxamide]"
2,0.0001 to 10,"CN1CC(NC(=O)c2cccc(-c3cnc4[nH]c(-c5ccccc5)cc4c3)n2)C1 [Compound P-0075, N-(1-methylazetidin-3-yl)-6-(2-phenyl-1H-pyrrolo[2,3-b]pyridin-5-yl)pyridine-2-carboxamide]"
3,0.0001 to 10,"NC1(C(F)(F)F)CCN(C(=O)c2cccc(-c3cnc4[nH]c(-c5ccccc5)cc4c3)n2)C1 (stereo not shown) [Compound P-0077, [3-amino-3-(trifluoromethyl)pyrrolidin-1-yl]-[6-(2-phenyl-1H-pyrrolo[2,3-b]pyridin-5-yl)-2-pyridyl]methanone]"
4,0.0001 to 10,"CC1(N)CCN(C(=O)c2cccc(-c3cnc4[nH]c(-c5ccccc5)cc4c3)n2)C1 (stereo not shown) [Compound P-0078, (3-amino-3-methyl-pyrrolidin-1-yl)-[6-(2-phenyl-1H-pyrrolo[2,3-b]pyridin-5-yl)-2-pyridyl]methanone]"
5,0.0001 to 10,"CNCC1CCN(C(=O)c2cccc(-c3cnc4[nH]c(-c5ccccc5)cc4c3)n2)C1 (stereo not shown) [Compound P-0079, [3-(methylaminomethyl)pyrrolidin-1-yl]-[6-(2-phenyl-1H-pyrrolo[2,3-b]pyridin-5-yl)-2-pyridyl]methanone]"
6,0.0001 to 10,"O=C(c1cccc(-c2cnc3[nH]c(-c4ccccc4)cc3c2)n1)N1CC(F)(F)C1 [Compound P-0090, (3,3-difluoroazetidin-1-yl)-[6-(2-phenyl-1H-pyrrolo[2,3-b]pyridin-5-yl)-2-pyridyl]methanone]"
7,0.0001 to 10,"COC1CN(C(=O)c2cccc(-c3cnc4[nH]c(-c5ccccc5)cc4c3)n2)C1 [Compound P-0091, (3-methoxyazetidin-1-yl)-[6-(2-phenyl-1H-pyrrolo[2,3-b]pyridin-5-yl)-2-pyridyl]methanone]"
8,0.0001 to 10,"CC1(C#N)CCN(C(=O)c2cccc(-c3cnc4[nH]c(-c5ccccc5)cc4c3)n2)CC1 [Compound P-0094, 4-methyl-1-[6-(2-phenyl-1H-pyrrolo[2,3-b]pyridin-5-yl)pyridine-2-carbonyl]piperidine-4-carbonitrile]"
9,0.0001 to 10,"COC1CCN(C(=O)c2cccc(-c3cnc4[nH]c(-c5ccccc5)cc4c3)n2)CC1 [Compound P-0098, (4-methoxy-1-piperidyl)-[6-(2-phenyl-1H-pyrrolo[2,3-b]pyridin-5-yl)-2-pyridyl]methanone]"
10,0.0001 to 10,"CS(=O)(=O)NC1CCN(C(=O)c2cccc(-c3cnc4[nH]c(-c5ccccc5)cc4c3)n2)C1 (stereo not shown) [Compound P-0101, N-[1-[6-(2-phenyl-1H-pyrrolo[2,3-b]pyridin-5-yl)pyridine-2-carbonyl]pyrrolidin-3-yl]methanesulfonamide]"
11,0.0001 to 10,"O=C(c1cccc(-c2cnc3[nH]c(-c4ccccc4)cc3c2)n1)N1CCC(N2CCOCC2)C1 (stereo not shown) [Compound P-0102, (3-morpholinopyrrolidin-1-yl)-[6-(2-phenyl-1H-pyrrolo[2,3-b]pyridin-5-yl)-2-pyridyl]methanone]"
12,0.0001 to 10,"O=C(c1cccc(-c2cnc3[nH]c(-c4ccccc4)cc3c2)n1)N1CCC(C(F)(F)F)C1 (stereo not shown) [Compound P-0103, [6-(2-phenyl-1H-pyrrolo[2,3-b]pyridin-5-yl)-2-pyridyl]-[3-(trifluoromethyl)pyrrolidin-1-yl]methanone]"
13,0.0001 to 10,"CN(C)C1CCN(C(=O)c2cccc(-c3cnc4[nH]c(-c5ccccc5)cc4c3)n2)C1 (stereo not shown) [Compound P-0104, [3-(dimethylamino)pyrrolidin-1-yl]-[6-(2-phenyl-1H-pyrrolo[2,3-b]pyridin-5-yl)-2-pyridyl]methanone]"
